Test results published in PubChem BioAssay (NCI).
Where “and” joins values, the source holds several entries; their conditions need not be identical. Equal entries are not always repeated.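 Tested at 5 concentrations; 48 h exposure; 96-well plates; endpoints linearly interpolated, else capped at highest concentration. Abbreviation: GI50, concentration required for 50% inhibition of growth. TGI is the concentration that stops growth completely.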 Where a SMILES comes first, the peptide text is derived from it. [ ]: non-standard residue; d: D form. Aoe = N[C@@H](CCCCCC(=O)[C@@H]1CO1)C(=O)O

How the values were obtained:
Experiment in all cases: inhibition of tumour cell growth, NCI panel, 48 h; in the data active = GI50 below about 0.43 µM; inactive = the rest
A498 renal = system: A498 renal
ACHN renal = system: ACHN renal
HCT-15 colon = system: HCT-15 colon
NCI-H460 lung = system: NCI-H460 lung
OVCAR-4 ovarian = system: OVCAR-4 ovarian
OVCAR-5 ovarian = system: OVCAR-5 ovarian
OVCAR-8 ovarian = system: OVCAR-8 ovarian
SK-OV-3 ovarian = system: SK-OV-3 ovarian
SN12C renal = system: SN12C renal
UACC-62 melanoma = system: UACC-62 melanoma
HOP-92 NSCLC = system: HOP-92 NSCLC
NCI-H226 lung = system: NCI-H226 lung
NCI-H23 lung = system: NCI-H23 lung
UACC-257 melanoma = system: UACC-257 melanoma
786-0 renal = system: 786-0 renal
A549 NSCLC = system: A549 NSCLC
BT-549 breast = system: BT-549 breast
CAKI-1 renal = system: CAKI-1 renal
CCRF-CEM leukemia = system: CCRF-CEM leukemia
COLO 205 colon = system: COLO 205 colon
DU-145 prostate = system: DU-145 prostate
EKVX NSCLC = system: EKVX NSCLC
HCC-2998 colon = system: HCC-2998 colon
HCT-116 colon = system: HCT-116 colon
HL-60(TB) leukemia = system: HL-60(TB) leukemia
HOP-62 NSCLC = system: HOP-62 NSCLC
HS 578T breast = system: HS 578T breast
HT29 colon = system: HT29 colon
IGROV1 ovarian = system: IGROV1 ovarian
K-562 leukemia = system: K-562 leukemia
KM12 colon = system: KM12 colon
LOX IMVI melanoma = system: LOX IMVI melanoma
M14 melanoma = system: M14 melanoma
MALME-3M melanoma = system: MALME-3M melanoma
MCF7 breast = system: MCF7 breast
MDA-MB-231 breast = system: MDA-MB-231 breast
MDA-MB-435 = system: MDA-MB-435
MOLT-4 leukemia = system: MOLT-4 leukemia
NCI-H522 lung = system: NCI-H522 lung
NCI/ADR-RES ovarian = system: NCI/ADR-RES ovarian
OVCAR-3 ovarian = system: OVCAR-3 ovarian
PC-3 prostate = system: PC-3 prostate
RPMI-8226 leukemia = system: RPMI-8226 leukemia
RXF 393 renal = system: RXF 393 renal
SF-268 CNS = system: SF-268 CNS
SF-539 CNS = system: SF-539 CNS
SK-MEL-2 melanoma = system: SK-MEL-2 melanoma
SK-MEL-28 melanoma = system: SK-MEL-28 melanoma
SNB-19 CNS = system: SNB-19 CNS
SNB-75 CNS = system: SNB-75 CNS
SR leukemia = system: SR leukemia
SW-620 colon = system: SW-620 colon
T-47D breast = system: T-47D breast
TK-10 renal = system: TK-10 renal
U251 CNS = system: U251 CNS
UO-31 renal = system: UO-31 renal
SF-295 CNS = system: SF-295 CNS
SK-MEL-5 melanoma = system: SK-MEL-5 melanoma

CCCCCCCCCCCCC[C@H](O)C[C@H](O)[C@H](C)N
3.27 µM: TGI (UACC-62 melanoma)
3.3 µM: TGI (ACHN renal)
3.87 µM: TGI (NCI-H460 lung)
47.1 µM: TGI (A498 renal)
inactive: GI50 (A498 renal) 6.19 µM | GI50 (ACHN renal) 1.86 µM | GI50 (HCT-15 colon) 1.65 µM | GI50 (NCI-H460 lung) 1.63 µM | GI50 (OVCAR-4 ovarian) 2.25 µM | GI50 (OVCAR-5 ovarian) 1.95 µM | GI50 (OVCAR-8 ovarian) 3.49 µM | GI50 (SK-OV-3 ovarian) 14.6 µM | GI50 (SN12C renal) 1.92 µM | GI50 (UACC-62 melanoma) 1.87 µM
3.38 µM: TGI (SN12C renal)
3.11 µM: TGI (HCT-15 colon)
3.42 µM: TGI (OVCAR-5 ovarian)
5.52 µM: TGI (OVCAR-4 ovarian)
40.9 µM: TGI (SK-OV-3 ovarian)
> 100 µM: TGI (OVCAR-8 ovarian)

O=C1N[C@@H](Cc2ccccc2)C(=O)N2CCC[C@@H]2C(=O)N[C@@H](CCCCCC(=O)[C@@H]2CO2)C(=O)N[C@H]1Cc1ccccc1 (cyclo(FF[dP][Aoe]))
1.6 µM: TGI (HOP-92 NSCLC)
2.12 µM and 0.458 µM: TGI (NCI-H23 lung)
active: GI50 (NCI-H23 lung) 0.00426 µM and 0.00689 µM | GI50 (UACC-257 melanoma) 0.000732 µM and 0.00214 µM
> 2.13 µM: TGI (NCI-H226 lung)

COc1cc2nc(SCC(=O)Nc3cc(OC)c(OC)c(OC)c3)n(Cc3ccccc3)c(=O)c2cc1OC
5.61 µM: TGI (BT-549 breast)
4.28 µM: TGI (HOP-62 NSCLC)
5.78 µM: TGI (SF-539 CNS)
11.6 µM: TGI (NCI/ADR-RES ovarian)
6.82 µM: TGI (UACC-62 melanoma)
10.6 µM: TGI (SK-MEL-2 melanoma)
inactive: GI50 (786-0 renal) 3.51 µM | GI50 (A498 renal) 1.75 µM | GI50 (A549 NSCLC) 5.13 µM | GI50 (ACHN renal) 4.63 µM | GI50 (BT-549 breast) 2.02 µM | GI50 (CAKI-1 renal) 3.05 µM | GI50 (CCRF-CEM leukemia) > 100 µM | GI50 (COLO 205 colon) 15.3 µM | GI50 (DU-145 prostate) 7.44 µM | GI50 (EKVX NSCLC) 5.12 µM | GI50 (HCC-2998 colon) 50.6 µM | GI50 (HCT-116 colon) 6.74 µM | GI50 (HCT-15 colon) > 100 µM | GI50 (HL-60(TB) leukemia) > 100 µM | GI50 (HOP-62 NSCLC) 2.03 µM | GI50 (HS 578T breast) 2.46 µM | GI50 (HT29 colon) 16.6 µM | GI50 (IGROV1 ovarian) 7.34 µM | GI50 (K-562 leukemia) > 100 µM | GI50 (KM12 colon) > 100 µM | GI50 (LOX IMVI melanoma) 4.71 µM | GI50 (M14 melanoma) 16.1 µM | GI50 (MALME-3M melanoma) 3.3 µM | GI50 (MCF7 breast) 7.93 µM | GI50 (MDA-MB-231 breast) 3.73 µM | GI50 (MDA-MB-435) 4.91 µM | GI50 (MOLT-4 leukemia) > 100 µM | GI50 (NCI-H23 lung) 4.17 µM | GI50 (NCI-H460 lung) 6.72 µM | GI50 (NCI-H522 lung) 3.65 µM | GI50 (NCI/ADR-RES ovarian) 3.3 µM | GI50 (OVCAR-3 ovarian) 7.68 µM | GI50 (OVCAR-4 ovarian) 2.11 µM | GI50 (OVCAR-5 ovarian) > 100 µM | GI50 (OVCAR-8 ovarian) 3.46 µM | GI50 (PC-3 prostate) 3.2 µM | GI50 (RPMI-8226 leukemia) > 100 µM | GI50 (RXF 393 renal) 2.55 µM | GI50 (SF-268 CNS) 3.57 µM | GI50 (SF-539 CNS) 2.37 µM | GI50 (SK-MEL-2 melanoma) 3.41 µM | GI50 (SK-MEL-28 melanoma) 3.02 µM | GI50 (SK-OV-3 ovarian) 2.91 µM | GI50 (SN12C renal) 4.7 µM | GI50 (SNB-19 CNS) 2.92 µM | GI50 (SNB-75 CNS) 1.57 µM | GI50 (SR leukemia) 40.9 µM | GI50 (SW-620 colon) > 100 µM | GI50 (T-47D breast) 6.57 µM | GI50 (TK-10 renal) 4.06 µM | GI50 (U251 CNS) 3.18 µM | GI50 (UACC-257 melanoma) 3.55 µM | GI50 (UACC-62 melanoma) 2.35 µM | GI50 (UO-31 renal) 1.95 µM
11.4 µM: TGI (SK-MEL-28 melanoma)
11.2 µM: TGI (U251 CNS)
21.5 µM: TGI (TK-10 renal)
5.56 µM: TGI (OVCAR-4 ovarian)
50.3 µM: TGI (NCI-H23 lung) | TGI (OVCAR-3 ovarian)
32.4 µM: TGI (NCI-H522 lung)
32.5 µM: TGI (A498 renal)
33 µM: TGI (COLO 205 colon)
7.26 µM: TGI (SK-OV-3 ovarian)
78.9 µM: TGI (HCT-116 colon)
28.8 µM: TGI (CAKI-1 renal)
> 100 µM: TGI (A549 NSCLC) | TGI (ACHN renal) | TGI (CCRF-CEM leukemia) | TGI (DU-145 prostate) | TGI (HCC-2998 colon) | TGI (HCT-15 colon) | TGI (HL-60(TB) leukemia) | TGI (IGROV1 ovarian) | TGI (K-562 leukemia) | TGI (KM12 colon) | TGI (LOX IMVI melanoma) | TGI (M14 melanoma) | TGI (MALME-3M melanoma) | TGI (MCF7 breast) | TGI (MDA-MB-435) | TGI (MOLT-4 leukemia) | TGI (NCI-H460 lung) | TGI (OVCAR-5 ovarian) | TGI (PC-3 prostate) | TGI (RPMI-8226 leukemia) | TGI (SN12C renal) | TGI (SR leukemia) | TGI (SW-620 colon) | TGI (T-47D breast) | TGI (UACC-257 melanoma)
31.1 µM: TGI (EKVX NSCLC)
17.6 µM: TGI (786-0 renal)
23.2 µM: TGI (SF-268 CNS)
34.9 µM: TGI (OVCAR-8 ovarian)
37.8 µM: TGI (MDA-MB-231 breast)
3.38 µM: TGI (SNB-75 CNS)
8.85 µM: TGI (UO-31 renal)
18.1 µM: TGI (SNB-19 CNS)
38.7 µM: TGI (HT29 colon)
9.45 µM: TGI (HS 578T breast)
8.35 µM: TGI (RXF 393 renal)

CC(C)=NNC=N/C(C#N)=C(\N)C#N
1.21 µM: TGI (HCC-2998 colon)
> 100 µM: TGI (786-0 renal) | TGI (A549 NSCLC) | TGI (ACHN renal) | TGI (BT-549 breast) | TGI (CAKI-1 renal) | TGI (CCRF-CEM leukemia) | TGI (COLO 205 colon) | TGI (DU-145 prostate) | TGI (EKVX NSCLC) | TGI (HCT-116 colon) | TGI (HCT-15 colon) | TGI (HL-60(TB) leukemia) | TGI (HOP-62 NSCLC) | TGI (HT29 colon) | TGI (IGROV1 ovarian) | TGI (K-562 leukemia) | TGI (M14 melanoma) | TGI (MALME-3M melanoma) | TGI (MCF7 breast) | TGI (MOLT-4 leukemia) | TGI (NCI-H226 lung) | TGI (NCI-H23 lung) | TGI (NCI-H460 lung) | TGI (NCI-H522 lung) | TGI (NCI/ADR-RES ovarian) | TGI (OVCAR-3 ovarian) | TGI (OVCAR-4 ovarian) | TGI (OVCAR-5 ovarian) | TGI (OVCAR-8 ovarian) | TGI (PC-3 prostate) | TGI (RPMI-8226 leukemia) | TGI (RXF 393 renal) | TGI (SF-268 CNS) | TGI (SF-295 CNS) | TGI (SF-539 CNS) | TGI (SK-MEL-2 melanoma) | TGI (SK-MEL-28 melanoma) | TGI (SK-MEL-5 melanoma) | TGI (SK-OV-3 ovarian) | TGI (SNB-19 CNS) | TGI (SNB-75 CNS) | TGI (SR leukemia) | TGI (SW-620 colon) | TGI (TK-10 renal) | TGI (U251 CNS) | TGI (UACC-257 melanoma) | TGI (UACC-62 melanoma) | TGI (UO-31 renal)
